The values below come from patent US8044087B2, “Hepatitis C virus inhibitors” (priority 2008, dated 2011).

Experiment [1] deals with T1, HCV NS3/4A protease complex (Hepatitis C virus genotype 1a, UniProt P27958, C1454S/C1711G).
T1 construct: DNA encoding the recombinant HCV NS3/4A protease complex (amino acids 1027 to 1711) for these strains; inferred from the pET21b vector and Ni-NTA purification; made in house; host or cells: Escherichia coli BL21 (DE3)
Nature of the experiment: FRET peptide assay to monitor HCV NS3/4A proteolytic activity. The experiment is classed as biochemical. Conditions: recombinant NS3/4A protease complex, strain not stated. An excerpt: HCV NS3 protease complexes, derived from the BMS strain, H77 strain or J4L6S strain, were generated, as described below. These purified recombinant proteins were generated for use in a homogeneous assay (see below) to provide an indication of how effective compounds of the present disclosure would be in inhibiting HCV NS3 proteolytic activity.
Serum from an HCV-infected patient was obtained from Dr. T. Wright, San Francisco Hospital. An engineered full-length cDNA (compliment deoxyribonucleic acid) template of the HCV genome (BMS strain) was constructed from DNA fragments obtained by reverse transcription-PCR (RT-PCR) of serum RNA (ribonucleic acid) and using primers selected on the basis of homology between other genotype 1a strains. From the determination of the entire genome sequence, a genotype 1a was assigned to the HCV isolate according to the classification of Simmonds et al. (See P Simmonds, K A Rose, S Graham, S W Chan, F McOmish, B C Dow, E A Follett, P L Yap and H Marsden, J. Clin. Microbiol., 31(6), 1493-1503 (1993)). […] The infectious clones, H77 (1a genotype) and J4L6S (1b genotype) were obtained from R. Purcell (NIH) and the sequences are published in Genbank (AAB67036, see Yanagi, M., Purcell, R. H., Emerson, S. U. and Bukh, J. Proc. Natl. Acad. Sci. U.S.A. 94(16), 8738-8743 (1997); AF054247, see Yanagi, M., St Claire, M., Shapiro, M., Emerson, S. U., Purcell, R. H. and Bukh, J., Virology 244 (1), 161-172. (1998)).
The H77 and J4L6S strains were used for production of recombinant NS3/4A protease complexes. DNA encoding the recombinant HCV NS3/4A protease complex (amino acids 1027 to 1711) for these strains was manipulated as described by P. Gallinari et al. (see Gallinari P, Paolini C, Brennan D, Nardi C, Steinkuhler C, De Francesco R. Biochemistry. 38(17):5620-32, (1999)). Briefly, a three-lysine solubilizing tail was added at the 3′-end of the NS4A coding region. The cysteine in the P1 position of the NS4A-NS4B cleavage site (amino acid 1711) was changed to a glycine to avoid the proteolytic cleavage of the lysine tag. Furthermore, a cysteine to serine mutation was introduced by PCR at amino acid position 1454 to prevent the autolytic cleavage in the NS3 helicase domain. The variant DNA fragment was cloned in the pET21b bacterial expression vector (Novagen) and the NS3/4A complex was expressed in Escherichia coli strain BL21 (DE3) (Invitrogen) following the protocol described by P. Gallinari et al. (see Gallinari P, Brennan D, Nardi C, Brunetti M, Tomei L, Steinkuhler C, De Francesco R., J Viral. 72(8):6758-69 (1998)) with modifications. Briefly, the NS3/4A protease complex expression was induced with 0.5 millimolar (mM) Isopropyl β-D-1-thiogalactopyranoside (IPTG) for 22 hours (h) at 20° C. […]

For experiment [2], the system named is HCV replicon in HUH-7 cells. Briefly: HCV replicon FRET assay (confirmed in replicon luciferase reporter assay). The settings on record: Hepatitis C virus, 96 h, HUH-7 cells expressing HCV 1b replicon, 4 days. The experiment is classed as cell-based. An excerpt: An HCV replicon whole cell system was established as described by Lohmann V, Korner F, Koch J, Herian U, Theilmann L, Bartenschlager R., Science 285(5424):110-3 (1999). This system enabled us to evaluate the effects of our HCV Protease compounds on HCV RNA replication. Briefly, using the HCV strain 1b sequence described in the Lohmann paper (Assession number: AJ238799), an HCV cDNA was synthesized by Operon Technologies, Inc. (Alameda, Calif.), and the full-length replicon was then assembled in plasmid pGem9zf(+) (Promega, Madison, Wis.) using standard molecular biology techniques. The replicon consists of (i) the HCV 5′ UTR fused to the first 12 amino acids of the capsid protein, (ii) the neomycin phosphotransferase gene (neo), (iii) the IRES from encephalomyocarditis virus (EMCV), and (iv) HCV NS3 to NS5B genes and the HCV 3′ UTR. Plasmid DNAs were linearized with ScaI and RNA transcripts were synthesized in vitro using the T7 MegaScript transcription kit (Ambion, Austin, Tex.) according to manufacturer's directions. In vitro transcripts of the cDNA were transfected into the human hepatoma cell line, HUH-7. […] Resulting cell lines were characterized for positive and negative strand RNA production and protein production over time.
The HCV replicon FRET assay was developed to monitor the inhibitory effects of compounds described in the disclosure on HCV viral replication. HUH-7 cells, constitutively expressing the HCV replicon, were grown in Dulbecco's Modified Eagle Media (DMEM) (Gibco-BRL) containing 10% Fetal calf serum (FCS) (Sigma) and 1 mg/ml G418 (Gibco-BRL). Cells were seeded the night before (1.5×10^4 cells/well) in 96-well tissue-culture sterile plates. Compound and no compound controls were prepared in DMEM containing 4% FCS, 1:100 Penicillin/Streptomysin (Gibco-BRL), 1:100 L-glutamine and 5% DMSO in the dilution plate (0.5% DMSO final concentration in the assay). Compound/DMSO mixes were added to the cells and incubated for 4 days at 37° C. After 4 days, cells were first assessed for cytotoxicity using alamar Blue (Trek Diagnotstic Systems) for a CC50 reading. The toxicity of compound (CC50) was determined by adding 1/10 volume of alamar Blue to the media incubating the cells. After 4 h, the fluorescence signal from each well was read, with an excitation wavelength at 530 nm and an emission wavelength of 580 nm, using the Cytofluor Series 4000 (Perspective Biosystems). Plates were then rinsed thoroughly with Phosphate-Buffered Saline (PBS) (3 times 150 μl).
As a secondary assay, EC50 determinations from the replicon FRET assay were confirmed in a replicon luciferase reporter assay. […] Following 4 days in a 37° C./5% CO2 incubator, cells were analyzed for Renilla Luciferase activity using the Promega Dual-Glo Luciferase Assay System. […]

The subject of a further experiment is HCV. The settings on record: combination therapy; cited from earlier work.

T1 sequence (P27958 1027-1711 C1454S/C1711G, one chain of several): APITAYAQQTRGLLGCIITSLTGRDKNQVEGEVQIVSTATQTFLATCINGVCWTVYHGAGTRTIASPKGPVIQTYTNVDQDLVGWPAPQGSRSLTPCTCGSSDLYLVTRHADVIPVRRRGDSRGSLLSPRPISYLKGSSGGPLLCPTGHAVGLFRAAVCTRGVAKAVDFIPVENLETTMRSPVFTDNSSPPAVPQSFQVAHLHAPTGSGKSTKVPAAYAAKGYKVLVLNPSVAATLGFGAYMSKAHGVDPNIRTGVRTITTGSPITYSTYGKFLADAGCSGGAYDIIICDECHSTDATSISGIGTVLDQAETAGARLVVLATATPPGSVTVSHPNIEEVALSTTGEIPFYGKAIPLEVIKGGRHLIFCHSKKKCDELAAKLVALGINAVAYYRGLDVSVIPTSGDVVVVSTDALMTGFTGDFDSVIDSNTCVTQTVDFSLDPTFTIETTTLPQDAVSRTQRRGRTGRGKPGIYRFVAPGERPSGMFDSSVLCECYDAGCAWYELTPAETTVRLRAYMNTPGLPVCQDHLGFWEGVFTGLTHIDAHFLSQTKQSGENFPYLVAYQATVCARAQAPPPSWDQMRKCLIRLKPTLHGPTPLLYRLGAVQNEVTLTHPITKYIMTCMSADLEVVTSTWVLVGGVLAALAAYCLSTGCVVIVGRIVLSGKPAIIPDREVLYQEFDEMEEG

Turning to `C=C[C@@H]1C[C@]1(NC(=O)[C@@H]1C[C@@]2(c3ccc(-c4ccccc4)cc3)CN1C(=O)[C@@H](NC(=O)OC(C)(C)C)CCCCC/C=C/CS2)C(=O)NS(=O)(=O)C1CC1` [Example 1, tert-butyl (3S,13R,15S,E)-13-(biphenyl-4-yl)-15-((1R,2S)-1-(cyclopropylsulfonylcarbamoyl)-2-vinylcyclopropylcarbamoyl)-2-oxo-12-thia-1-azabicyclo[11.2.1]hexadec-9-en-3-ylcarbamate], the IC50 in experiment [1] was 5 nM. The EC50 in experiment [2] was determined as 75 nM. Regarding `C=C[C@@H]1C[C@]1(NC(=O)[C@@H]1C[C@@]2(c3ccc(-c4ccccc4)cc3)CN1C(=O)[C@@H](NC(=O)OC(C)(C)C)CCCCCC/C=C/CS2)C(=O)NS(=O)(=O)C1CC1` [Example 2, tert-butyl (3S,14R,16S,E)-14-(biphenyl-4-yl)-16-((1R,2S)-1-(cyclopropylsulfonylcarbamoyl)-2-vinylcyclopropylcarbamoyl)-2-oxo-13-thia-1-azabicyclo[12.2.1]heptadec-10-en-3-ylcarbamate], the concentration for half-maximal inhibition (IC50) in experiment [1] (class symbols) was in the range of 5 to 30 nM. In addition, the 50% effective concentration (EC50) in experiment [2] (class symbols) was 501 to 1000 nM. Taken in the same sequence, the figures for `C=C[C@@H]1C[C@]1(NC(=O)[C@@H]1C[C@@]2(c3ccc(-c4ccccc4)cc3)CN1C(=O)[C@@H](NC(=O)OC(C)(C)C)CCCCCCCCCS2)C(=O)NS(=O)(=O)C1CC1` [Example 3, tert-butyl (3S,14R,16S)-14-(biphenyl-4-yl)-16-((1R,2S)-1-(cyclopropylsulfonylcarbamoyl)-2-vinylcyclopropylcarbamoyl)-2-oxo-13-thia-1-azabicyclo[12.2.1]heptadecan-3-ylcarbamate] were 5 to 30 nM and 501 to 1000 nM.

Consider `C=C[C@@H]1C[C@]1(NC(=O)[C@@H]1C[C@@]2(c3ccc(-c4ccccc4)cc3)CN1C(=O)[C@@H](NC(=O)OC(C)(C)C)CCCC/C=C/CS2)C(=O)NS(=O)(=O)C1CC1` [Example 4, tert-butyl (3S,12R,14S,E)-12-(biphenyl-4-yl)-14-((1R,2S)-1-(cyclopropylsulfonylcarbamoyl)-2-vinylcyclopropylcarbamoyl)-2-oxo-11-thia-1-azabicyclo[10.2.1]pentadec-8-en-3-ylcarbamate], for which the IC50 in experiment [1] (class symbols) fell in the range of 31 to 100 nM. Further, the EC50 in experiment [2] (class symbols) lay in the range of 501 to 1000 nM. For alpha-interferon and ribavirin, in the experiment on HCV, the “sustained efficacy, share of patients” value is 40%.
